Test results: patent US9693556B2, “Herbicidal pyridazinone derivatives” (SYNGENTA LIMITED, priority 2011, dated 2017)

Columns and labels:
Assay type in all cases: in vivo
[1] = system: Ipomoea hederacea (IPOHE); test: Pre-emergence herbicidal glasshouse test on Ipomoea hederacea; settings: pre-emergence; 1000 g/h; evaluated after 13 days
Method in brief: (§1)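 Application rate 1000 g/h, formulated in acetone/water (50:50) with 0.5% Tween 20 and sprayed onto pots sown 1 day (pre-emergence) or 8 days (post-emergence) earlier. Evaluation at 13 days rated damage from 1 (0-19%) to 5 (80-100%).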

Setaria faberi (SETFA) [2] = test: Pre-emergence herbicidal glasshouse test on Setaria faberi; settings: pre-emergence; 1000 g/h; evaluated after 13 days
Method in brief: as §1

Solanum nigrum (SOLNI) [3] = test: Pre-emergence herbicidal glasshouse test on Solanum nigrum; settings: pre-emergence; 1000 g/h; evaluated after 13 days
Method in brief: as §1

[4] = system: Alopecurus myosuroides (ALOMY); test: Post-emergence herbicidal glasshouse test on Alopecurus myosuroides; settings: post-emergence; 1000 g/h; evaluated after 13 days
Method in brief: as §1

[5] = system: Amaranthus retoflexus (AMARE); test: Post-emergence herbicidal glasshouse test on Amaranthus retoflexus; settings: post-emergence; 1000 g/h; evaluated after 13 days
Method in brief: as §1

Setaria faberi (SETFA) [6] = test: Post-emergence herbicidal glasshouse test on Setaria faberi; settings: post-emergence; 1000 g/h; evaluated after 13 days
Method in brief: as §1

[7] = system: Echinochloa crus-galli (ECHCG); test: Post-emergence herbicidal glasshouse test on Echinochloa crus-galli; settings: post-emergence; 1000 g/h; evaluated after 13 days
Method in brief: as §1

[8] = system: Amaranthus retoflexus (AMARE); test: Pre-emergence herbicidal glasshouse test on Amaranthus retoflexus; settings: pre-emergence; 1000 g/h; evaluated after 13 days
Method in brief: as §1

[9] = system: Alopecurus myosuroides (ALOMY); test: Pre-emergence herbicidal glasshouse test on Alopecurus myosuroides; settings: pre-emergence; 1000 g/h; evaluated after 13 days
Method in brief: as §1

[10] = system: Ipomoea hederacea (IPOHE); test: Post-emergence herbicidal glasshouse test on Ipomoea hederacea; settings: post-emergence; 1000 g/h; evaluated after 13 days
Method in brief: as §1

[11] = system: Echinochloa crus-galli (ECHCG); test: Pre-emergence herbicidal glasshouse test on Echinochloa crus-galli; settings: pre-emergence; 1000 g/h; evaluated after 13 days
Method in brief: as §1

Solanum nigrum (SOLNI) [12] = test: Post-emergence herbicidal glasshouse test on Solanum nigrum; settings: post-emergence; 1000 g/h; evaluated after 13 days
Method in brief: as §1

Row | Structure (SMILES) | PRE Application IPOHE herbicidal damage (five point scale) [1] | PRE Application SETFA herbicidal damage (five point scale) (Setaria faberi (SETFA) [2]) | PRE Application SOLNI herbicidal damage (five point scale) (Solanum nigrum (SOLNI) [3]) | POST Application ALOMY herbicidal damage (five point scale) [4] | POST Application AMARE herbicidal damage (five point scale) [5] | POST Application SETFA herbicidal damage (five point scale) (Setaria faberi (SETFA) [6]) | POST Application ECHCG herbicidal damage (five point scale) [7] | PRE Application AMARE herbicidal damage (five point scale) [8] | PRE Application ALOMY herbicidal damage (five point scale) [9] | POST Application IPOHE herbicidal damage (five point scale) [10] | PRE Application ECHCG herbicidal damage (five point scale) [11] | POST Application SOLNI herbicidal damage (five point scale) (Solanum nigrum (SOLNI) [12])
1 | Cc1ccc(F)cc1-c1c(C(F)(F)F)ccn(-c2cnn(C)c(=O)c2O)c1=O [Compound 7.007] | 4 (4=60-79% damage) | 5 (5=80-100% damage) | 5 (5=80-100% damage) | 5 (5=80-100% damage) | 5 (5=80-100% damage) | 5 (5=80-100% damage) | 5 (5=80-100% damage) | 5 (5=80-100% damage) | 5 (5=80-100% damage) | 5 (5=80-100% damage) | 5 (5=80-100% damage) | 5 (5=80-100% damage)
2 | CCS(=O)(=O)c1nc(C(F)(F)F)ccc1-c1cnn(C)c(=O)c1O [Compound 1.135] | 5 (5=80-100% damage) | 5 (5=80-100% damage) | 5 (5=80-100% damage) | 4 (4=60-79% damage) | 5 (5=80-100% damage) | 5 (5=80-100% damage) | 5 (5=80-100% damage) | 5 (5=80-100% damage) | 4 (4=60-79% damage) | 5 (5=80-100% damage) | 5 (5=80-100% damage) | 5 (5=80-100% damage)
3 | Cn1ncc(-c2ccc(-c3ccccc3)cc2S(C)(=O)=O)c(O)c1=O [Compound 2.033] | 1 (1=0-19% damage) | 2 (2=20-39% damage) | 5 (5=80-100% damage) | 5 (5=80-100% damage) | 5 (5=80-100% damage) | 3 (3=40-59% damage) | 5 (5=80-100% damage) | 5 (5=80-100% damage) | 4 (4=60-79% damage) | 5 (5=80-100% damage) | 4 (4=60-79% damage) | 5 (5=80-100% damage)
4 | Cc1cc(-c2cnn(C)c(=O)c2O)c(=O)n(-c2ccsc2)c1 [Compound 6.002] | 2 (2=20-39% damage) | 1 (1=0-19% damage) | 5 (5=80-100% damage) | 1 (1=0-19% damage) | 4 (4=60-79% damage) | 1 (1=0-19% damage) | 1 (1=0-19% damage) | 5 (5=80-100% damage) | 1 (1=0-19% damage) | 2 (2=20-39% damage) | 1 (1=0-19% damage) | 3 (3=40-59% damage)
5 | C#Cn1ncc(-c2ccc(C(F)(F)F)cc2S(C)(=O)=O)c(O)c1=O [Compound 2.010] | 5 (5=80-100% damage) | 5 (5=80-100% damage) | 5 (5=80-100% damage) | 5 (5=80-100% damage) | 5 (5=80-100% damage) | 5 (5=80-100% damage) | 5 (5=80-100% damage) | 5 (5=80-100% damage) | 5 (5=80-100% damage) | 5 (5=80-100% damage) | 5 (5=80-100% damage) | 5 (5=80-100% damage)
6 | CSc1ccc(-c2c(C(F)(F)F)ccn(-c3cnn(C)c(=O)c3O)c2=O)cc1 [Compound 7.036] | 4 (4=60-79% damage) | 2 (2=20-39% damage) | 5 (5=80-100% damage) | 2 (2=20-39% damage) | 5 (5=80-100% damage) | 3 (3=40-59% damage) | 4 (4=60-79% damage) | 5 (5=80-100% damage) | 2 (2=20-39% damage) | 4 (4=60-79% damage) | 1 (1=0-19% damage) | 5 (5=80-100% damage)
7 | CC(C)c1cccc(-c2c(C(F)(F)F)ccn(-c3cnn(C)c(=O)c3O)c2=O)c1 [Compound 7.014] | 1 (1=0-19% damage) | 4 (4=60-79% damage) | 5 (5=80-100% damage) | 1 (1=0-19% damage) | 5 (5=80-100% damage) | 4 (4=60-79% damage) | 5 (5=80-100% damage) | 5 (5=80-100% damage) | 3 (3=40-59% damage) | 3 (3=40-59% damage) | 3 (3=40-59% damage) | 5 (5=80-100% damage)
8 | COc1ccc(Cn2ncc(-c3ccc(Cl)cc3S(C)(=O)=O)c(O)c2=O)cc1 [Compound 2.008] | 3 (3=40-59% damage) | 2 (2=20-39% damage) | 5 (5=80-100% damage) | 3 (3=40-59% damage) | 5 (5=80-100% damage) | 5 (5=80-100% damage) | 5 (5=80-100% damage) | 5 (5=80-100% damage) | 4 (4=60-79% damage) | 5 (5=80-100% damage) | 5 (5=80-100% damage) | 5 (5=80-100% damage)
9 | Cn1ncc(-n2ccc(C(F)(F)F)c(-c3cccc(S(C)(=O)=O)c3)c2=O)c(O)c1=O [Compound 7.023] | 2 (2=20-39% damage) | 4 (4=60-79% damage) | 5 (5=80-100% damage) | 1 (1=0-19% damage) | 5 (5=80-100% damage) | 4 (4=60-79% damage) | 4 (4=60-79% damage) | 5 (5=80-100% damage) | 2 (2=20-39% damage) | 1 (1=0-19% damage) | 2 (2=20-39% damage) | 5 (5=80-100% damage)
10 | C=C(C)c1ccc(-c2cnn(C)c(=O)c2O)c(S(C)(=O)=O)c1 [Compound 1.140] | 2 (2=20-39% damage) | 1 (1=0-19% damage) | 5 (5=80-100% damage) | 5 (5=80-100% damage) | 5 (5=80-100% damage) | 3 (3=40-59% damage) | 5 (5=80-100% damage) | 5 (5=80-100% damage) | 5 (5=80-100% damage) | 5 (5=80-100% damage) | 5 (5=80-100% damage) | 5 (5=80-100% damage)
